Measurements published in patent US8865737B2, “Antitumor agent for undifferentiated gastric cancer” (Eisai R&D Management Co., Ltd., priority 2006, dated 2014).

Columns and labels:
[1] = system: KATO-III; assay: Anti-tumor effect, subcutaneous transplanted (xenograft) model; type: in vivo, nude mice; settings: oral 30 or 100 mg/kg once a day, two-weeks schedule (FIG. 3)
Protocol: (§1) Human undifferentiated gastric cancer cell lines (KATO-III (purchased from ATCC)), SNU-16 (purchased from ATCC) and HSC-39 (purchased from Immuno-Biological Laboratories) were cultured with RPMI1640 (containing 10% FBS) in a 5% CO2 incubator at 37° C. The cells were collected with trypsin-EDTA according to a conventional method. The cells were suspended in a phosphate buffer to prepare a 5×10^7 cells/mL suspension. Each 0.1 mL of the resulting cell suspensions was subcutaneously transplanted into the side of body of nude mice (purchased from Charles River). Following transplantation, the test substance 4-(3-chloro-4-(cyclopropylaminocarbonyl)aminophenoxy)-7-methoxy-6-quinolinecarboxamide (methanesulfonate) dissolved in distilled water for injection (purchased from Otsuka Pharmaceutical) was orally administered at 1, 3, 10, 30 or 100 mg/kg once a day on a four-weeks schedule (except for KATO-III, 30 or 100 mg/kg, once a day, two-weeks schedule) once the tumor volume became (reached) about 100-200 mm^3. The major and minor axes of tumors were measured with Digimatic caliper (Mitsutoyo), and tumor volumes were calculated according to the following formulae. Tumor Volume (TV)=Major axis of tumor (mm)×(Minor axis of tumor)^2 (mm^2)/2

[2] = system: HSC-39; assay: as above; type: in vivo, nude mice; settings: HSC-39 xenograft, oral 1, 3, 10, 30 or 100 mg/kg once a day, four-weeks schedule (FIG. 3)
Protocol: as §1

[3] = system: SNU-16; assay: as above; type: in vivo, nude mice; settings: SNU-16 xenograft, oral 1, 3, 10, 30 or 100 mg/kg once a day, four-weeks schedule (FIG. 3)
Protocol: as §1

[4] = target: T1, FGFR2 recombinant protein (Homo sapiens, UniProt P21802); assay: FGFR2 kinase inhibitory activity (cell free kinase assay, Upstate); type: biochemical; settings: poly(Glu, Tyr)4:1 substrate, [γ-33P]-ATP, 40 minutes at room temperature
T1 construct: purchased Upstate (UK)
Protocol: Specifically, the FGFR2 kinase inhibitory activity was measured as follows.
MgATP was added to 25 μL of solution containing 5-10 mU of FGFR2 recombinant protein, 8 mM MOPS (pH 7.0), 0.2 mM EDTA, 2.5 mM MnCl2, 0.1 mg/ml poly (Glu, Tyr)4:1, 10 mM Mg Acetate, 500 cpm/mol [γ-^33P]-ATP and a test substance to initiate reaction.
Following 40 minutes of reaction at room temperature, 5 μL of 3% phosphoric acid was added to terminate the reaction. 10 μL of the reaction solution was spotted on Filtermat A, which was washed with 75 mM phosphoric acid for five times and once with ethanol and then dried. The radioactivity of the spot was determined (measured).
In this regard, a value obtained when substrate Poly(Glu, Tyr)4:1 was contained but not the FGFR2 recombinant protein was assumed 0% value while a value obtained when the FGFR2 recombinant protein and substrate Poly(Glu, Tyr)4:1 were contained but not the test substance was assumed 100% value.
The kinase activity in the presence of the test substance at each concentration was calculated as percentage of the value obtained by subtracting the 0% value from each radioactivity value to the value obtained by subtracting the 0% value from the 100% value.

[5] = system: KATO-III; assay: Cell proliferation, Cell Counting Kit-8; type: cell-based; settings: Homo sapiens, 72 h, 1% FBS, three days, read-out: inhibition of cell proliferation IC50
Protocol: (§2) Human undifferentiated gastric cancer cell lines (KATO-III (purchased from ATCC)), SNU-16 (purchased from ATCC) and HSC-39 (purchased from Immuno-Biological Laboratories)) were suspended in RPMI1640 media (purchased from Sigma) containing 10% FBS except that KATO-III was suspended in an RMPI1640 medium containing 1% FBS. The cell suspensions (KATO-III: 6×10^4 cells/mL; SNU-16 and HSC-39: 2×10^4 cells/mL) were placed into a 96-well cell culture plate (purchased from NUNC) at 0.1 mL/well and cultured in a 5% CO2 incubator (37° C.) overnight. Following cultivation, 0.1 mL of the test substance 4-(3-chloro-4-(cyclopropylaminocarbonyl)aminophenoxy)-7-methoxy-6-quinolinecarboxamide (methanesulfonate) diluted in an RPMI1640 medium containing 1% or 10% FBS was added to each well and further cultured in a 5% CO2 incubator (37° C.) for three days. Following cultivation, 20 μL of Cell Counting Kit-8 (purchased from DOJINDO) was added to each well and allowed to develop color in a 5% CO2 incubator (37° C.) to determine (measure) the absorbance of each well by using a plate reader MTP-500 (Corona Electric) at a measurement wavelength of 450 nm and a reference wavelength of 660 nm.

[6] = system: HSC-39; assay: Cell proliferation, Cell Counting Kit-8; type: cell-based; settings: Homo sapiens, 72 h; HSC-39, 10% FBS, three days; read-out: inhibition of cell proliferation IC50
Protocol: as §2

[7] = system: SNU-16; assay: Cell proliferation, Cell Counting Kit-8; type: cell-based; settings: Homo sapiens, 72 h; SNU-16, 10% FBS, three days; read-out: inhibition of cell proliferation IC50
Protocol: as §2

[8] = system: HSC-39; assay: Apoptosis of human undifferentiated gastric cancer cell line (PARP / caspase-3 fragmentation, western blotting); type: cell-based; settings: 1 μM, HSC-39, one or three days (FIG. 2)
Protocol: Human undifferentiated gastric cancer cell line HSC-39 (purchased from Immuno-Biological Laboratories) was suspended in an RPMI1640 medium (purchased from Sigma) containing 10% FBS. Five mL of the cell suspension (4×10^5 cells/mL) was placed into a […] (purchased from FALCON). To this, 5 mL of the test substance 4-(3-chloro-4-(cyclopropylaminocarbonyl)aminophenoxy)-7-methoxy-6-quinolinecarboxamide (methanesulfonate) diluted in an RPMI1640 medium containing 10% FBS was added and cultured in a 5% CO2 incubator (37° C.) for one or three days. The culture solution was collected and each flask was washed with 5 mL PBS. The mixture of the collected culture solution and the washing solution was centrifuged at 1,000 rpm, at 4° C. for 5 minutes. For precipitation, 100 μL of a lysis buffer (50 mM Hepes (pH 7.4), 150 mM NaCl, 10% (v/v) glycerol, 1% Triton X-100, 1.5 mM MgCl2, 1 mM EDTA (pH 8.0), 100 mM NaF, 1 mM PMSF, 10 μg/mL Aprotinin, 50 μg/mL Leupeptin, 1 μg/mL Pepstatin A, 1 mM Na3VO4) was added to solubilize the cells. This solution was collected and centrifugated at 15,000 rpm, at 4° C. for 15 minutes. An SDS buffer was added to the supernatant to prepare a 25 μg/15 μL solution and the resultant was treated at 94° C. for 5 minutes to solubilize the protein, which was prepared as a cell sample solution. […]

[9] = system: FGFR2; assay: FGFR2 phosphorylation in human undifferentiated gastric cancer cell lines (immunoprecipitation, western blotting); type: cell-based; settings: 1 μM, one hour; KATO-III, SNU-16 and HSC-39 cells (FIG. 1)
Protocol: Human undifferentiated gastric cancer cell lines (KATO-III (purchased from ATCC)), SNU-16 (purchased from ATCC) and HSC-39 (purchased from Immuno-Biological Laboratories)) were suspended in RPMI1640 media (purchased from Sigma) containing 10% FBS (fetal bovine serum). KATO-III, SNU-16 and HSC-39 are cells showing FGFR2 gene amplification (Laboratory Investigation, 78, 1143-1153, 1998), and are also known as scirrhous gastric cancer cell lines. Each 10 mL of the cell suspensions (5×10^5 cells/mL) was placed into a 75 cm^2 cell culture flask (purchased from FALCON) and cultured in a 5% CO2 incubator (37° C.) overnight. In the case of KATO-III, the medium was replaced by an RMPI1640 medium containing 1% FBS. To this, 10 mL of the test substance 4-(3-chloro-4-(cyclopropylaminocarbonyl)aminophenoxy)-7-methoxy-6-quinolinecarboxamide (methanesulfonate) diluted in RPMI1640 containing 1% or 10% FBS was added and cultured in a 5% CO2 incubator (37° C.) for an hour. The culture solution was collected, each flask was washed with 5 mL PBS, and the mixture of the collected culture and the washing solution was centrifuged at 1,000 rpm, at 4° C. for 5 minutes. […]

[10] = system: FGFR2; assay: FGFR2 phosphorylation in tumor tissues of subcutaneous transplanted (xenograft) models; type: in vivo, nude mice; settings: SNU-16 and HSC-39 xenografts, oral 10, 30 or 100 mg/kg, tumors removed two hours after administration (FIG. 4)
Protocol: Human undifferentiated gastric cancer cell lines (SNU-16 (purchased from ATCC) and HSC-39 (purchased from Immuno-Biological Laboratories) were cultured with RPMI1640 (containing 10% FBS) in a 5% CO2 incubator (37° C.) and cells were collected with trypsin-EDTA according to a conventional method. The cells were suspended in a phosphate buffer to prepare a 5×10^7 cells/mL suspension. Each 0.1 mL of the resulting cell suspensions was subcutaneously transplanted into the side of body of nude mice (purchased from Charles River).
Following transplantation, the test substance 4-(3-chloro-4-(cyclopropylaminocarbonyl)aminophenoxy)-7-methoxy-6-quinolinecarboxamide (methanesulfonate) dissolved in distilled water for injection (purchased from Otsuka Pharmaceutical) was orally administered at 10, 30 or 100 mg/kg once the tumor volume became (reached) about 400-800 mm^3. Tumors were removed two hours after the administration, to which a lysis buffer (50 mM Hepes (pH 7.4), 150 mM NaCl, 10% (v/v) glycerol, 1% TritonX-100, 1.5 mM MgCl2, 1 mM EDTA (pH 8.0), 100 mM NaF, 1 mM PMSF, 10 μg/mL Aprotinin, 50 μg/mL Leupeptin, 1 μg/mL Pepstatin A, 1 mM Na3VO4) and 25 mM β-glycerophosphate and phosphatase inhibitor cocktail II (SIGMA)) was added for homogenization. The resultant was centrifugated at 15,000 rpm, at 4° C. for 15 minutes. 1000 μg/500 μL of The supernatant was prepared as a tumor extract. […]

T1 sequence (P21802 22-821): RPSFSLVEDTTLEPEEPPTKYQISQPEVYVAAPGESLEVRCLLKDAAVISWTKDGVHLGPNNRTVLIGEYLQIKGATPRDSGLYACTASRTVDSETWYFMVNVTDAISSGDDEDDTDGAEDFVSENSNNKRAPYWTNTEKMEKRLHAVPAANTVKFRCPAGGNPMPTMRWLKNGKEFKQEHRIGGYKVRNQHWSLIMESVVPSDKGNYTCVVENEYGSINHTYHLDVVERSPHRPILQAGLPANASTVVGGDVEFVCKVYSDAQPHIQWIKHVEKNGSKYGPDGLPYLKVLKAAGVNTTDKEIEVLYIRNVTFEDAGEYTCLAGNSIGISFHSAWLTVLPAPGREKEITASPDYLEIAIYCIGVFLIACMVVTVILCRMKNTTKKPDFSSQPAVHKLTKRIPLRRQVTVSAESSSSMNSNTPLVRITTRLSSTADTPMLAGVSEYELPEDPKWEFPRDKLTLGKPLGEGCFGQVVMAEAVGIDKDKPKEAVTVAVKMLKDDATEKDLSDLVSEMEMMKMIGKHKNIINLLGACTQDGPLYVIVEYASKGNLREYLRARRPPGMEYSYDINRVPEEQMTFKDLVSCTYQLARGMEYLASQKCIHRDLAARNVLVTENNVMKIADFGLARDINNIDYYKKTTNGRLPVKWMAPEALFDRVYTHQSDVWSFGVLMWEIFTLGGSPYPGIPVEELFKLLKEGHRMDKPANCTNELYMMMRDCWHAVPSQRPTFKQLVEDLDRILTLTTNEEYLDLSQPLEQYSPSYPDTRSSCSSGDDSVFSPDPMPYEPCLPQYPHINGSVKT

- IC50 [4]: < 0.01 µM
- IC50 [7]: 0.251 µM
SMILES: COc1cc2nccc(Oc3ccc(NC(=O)NC4CC4)c(Cl)c3)c2cc1C(N)=O [4-(3-chloro-4-(cyclopropylaminocarbonyl)aminophenoxy)-7-methoxy-6-quinolinecarboxamide]
- anti-tumor effect (tumor volume) [1]: dose-dependent anti-tumor effect
- anti-tumor effect (tumor volume) [2]: dose-dependent anti-tumor effect
- anti-tumor effect (tumor volume) [3]: dose-dependent anti-tumor effect
- IC50 [5]: 0.141 µM
- IC50 [6]: 0.157 µM
- cleaved-PARP [8]: clearly detected
- cleaved-caspase-3 [8]: clearly detected
- phosphorylation of FGFR2 [9]: almost completely inhibited
- phosphorylation of FGFR2 in tumor [10]: inhibit phosphorylation of FGFR2
